Assay results published in PMC3045100, “Cell-Penetrating Penta-Peptides (CPP5s): Measurement of Cell Entry and Protein-Transduction Activity” (Pharmaceuticals, 2010).

Assays:
Jurkat cells = test: Protection from staurosporine-induced apoptosis (Hoechst nuclear staining); type: cell-based; conditions: 200 μM peptide 3 h pre-incubation, STS 100 nM, 3 or 6 h, Hoechst dye nuclear staining, triplicate samples, P < 0.01
Procedure: (§1) Figure 3 Protection of cells from apoptosis by VPTLK. a-d. Proteoglycan is not required for VPTLK cell entry. Microscopic analysis of cell entry of Fam-VPTLK in Chinese Hamster Ovary (CHO) A745 cells lacking proteoglycans in the plasma membrane (a) and CHO K1 cells that express proteoglycans (b). CHO A745 and K1 cells were incubated with Fam-VPTLK (200 μM) for 3 h at 37 °C. […] Apoptosis was determined by using Hoechst dye nuclear staining. Each bar represents the mean of triplicate samples and standard error, and statistical significance was determined by an unpaired student t test; “ns”: not significant, *P < 0.05, and **P < 0.01. e. […] Jurkat cells were pre-incubated with VPTLK 200 μM for 3 h prior to STS treatment (100 nM, 3 or 6 h). Apoptosis was determined by Hoechst dye nuclear staining. Each bar represents the mean of triplicate samples and standard error, and statistical significance was determined by an unpaired student t test: **P < 0.01. f. […] Apoptosis was determined by Hoechst dye nuclear staining. […]
(§2) To induce Bax-mediated apoptosis in HeLa cells, cells were transfected with pEGFP-Bax (1 µg) and apoptosis was determined 24 h after the transfection. […] To detect apoptosis, cells were stained with Hoechst 33258 dye, and the numbers of cells with apoptotic nuclei were counted using fluorescence microscopy. Three-hundred cells were analyzed in triplicate samples. […]

Bax = molecular target: T1, Bax (Homo sapiens, UniProt Q07812); test: Inhibition of Bax-induced apoptosis after pEGFP-Bax transfection; type: cell-based; conditions: 200 μM peptide 3 h before pEGFP-Bax plasmid transfection, apoptosis assayed 24 h after transfection, triplicate samples, P < 0.01
T1 construct: expressed in transfected cells; host or cells: HeLa cells
Procedure: as §1, §2

T1 sequence (Q07812 whole entry, species assumed): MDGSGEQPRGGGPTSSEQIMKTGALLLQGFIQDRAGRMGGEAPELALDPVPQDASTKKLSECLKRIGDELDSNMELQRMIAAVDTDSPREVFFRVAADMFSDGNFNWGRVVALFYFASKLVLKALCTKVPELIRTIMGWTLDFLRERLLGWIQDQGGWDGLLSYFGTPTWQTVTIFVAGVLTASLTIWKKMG

With VPTLK the “Protection from STS-induced apoptosis, Jurkat” value (Jurkat cells) was “protected Jurkat cells from STS-induced apoptosis” and the “Inhibition of Bax-induced apoptosis, HeLa” value (Bax) was “inhibited Bax-induced apoptosis in HeLa cells”.
